Experimental data from patent publication US11098257B2, “Bioderived fuels and methods of making the same” (Alliance for Sustainable Energy, LLC, priority 2019, dated 2021).
Converted amounts (≈) assume the structure as drawn.

What was measured:
Assay type in all cases: physicochemical
[1] = Lower heating value from bomb calorimeter HHV (D240) and hydrogen content; conditions: measured value
Description: Heating Values. HHV was found using a bomb calorimeter to combust 15 mL of sample (D240), with LHV calculated using sample hydrogen content (D240, Section 10.5.1) measured using a LECO TruSpec CHN determinator. To find hydrogen content, samples were combusted in excess oxygen at 950° C. The amount of CO2 and H2O produced could then be quantified using IR and using an EDTA calibration standard the hydrogen wt % could be extracted.

Flash point measurement = conditions: measured value
Description: Flash point. D7094 was used to measure Tflash with an average error of ±1.3° C.

[2] = Water solubility, ether in aqueous layer by GC/MS; conditions: thermodynamic from solid; purified ether, water saturated 1:5 by volume, left overnight
Description: Water Solubility. […] The mixed samples were left overnight to separate and the amount of ether in the aqueous layer was determined by GC/MS.

[3] = Rapid small-scale oxidation test (RSSOT), PetroOxy induction time
Description: The next important consideration is that of safety and fuel quality upon storage of the novel blendstock. Oxidation stability of 4-butoxyheptane was examined experimentally. Two distinct characterizations were performed regarding oxidation potential during storage. The first utilized a rapid small-scale oxidation test (RSSOT) using a PetroOxy instrument to determine induction time, which indicates the potential for a fuel to oxidize during storage, which may result in quality degradation from formation of low molecular weight acids and insoluble polymers.

[4] = Storage stability aging per ASTM D4625, GC-MS profile; conditions: GC-MS profile after 6 weeks of aging (simulating 6 months)
Description: Storage stability testing. Aging conditions to test storage stability of the target ether are based on the procedure of ASTM D4625 Standard Test Method for Middle Distillate Fuel Storage Stability. This method accelerates the oxidation rate of diesel fuel by approximately 4-fold, with one week under these conditions equivalent to approximately one month of storage at 21° C. It should be noted that this degree of acceleration has not been validated for ethers, but nonetheless provides a standard protocol for diesel range sample aging. Aging was conducted for 6 weeks (simulating 6 months) with measurement of peroxide concentration at 2-week intervals. Peroxide concentration was measured following AOCS method Cd 8b-90, modified for potentiometric end point detection and smaller sample size. A sample of isoamyl ether (>99%, non-stabilized, Sigma-Aldrich) was aged alongside the 4-butoxyheptane for comparison. Samples of 4-butoxyheptane before and after aging were analyzed by gas chromatography with mass spectrometry (GC-MS) in an attempt to identify components produced by oxidation (see Table 11 below). The ether samples were diluted volumetrically in acetone 1:10. Analysis was conducted with an Agilent 7890A GC coupled with an Agilent 5975C mass selective detector (MSD). […]

[5] = Boiling point (simulated distillation T90 D2887; blend by TGA); conditions: measured value
From the text: Boiling Point. Tboil of pure was estimated using T90 of a simulated distillation (D2887), with blend Tboil determined using thermogravimetric analysis (TGA).

Row | SMILES | Lower Heating Value [1] | Lower Heating Value ([1]; listed as drawing 5) | Flashpoint (Flash point measurement) | solubility [2] | induction period ([3]; neat ether, no antioxidant) | induction period with antioxidant ([3]; with 100 ppm butylated hydroxytoluene (BHT)) | % Total Area [4] | Boiling Point [5]
1 | CCCCOC(CCC)CCC [4-butoxyheptane] | 39.2 mJ/kg | 39 mJ/kg | 64 °C | 15 µg/mL (≈ 87.1 µM) | about 23 minutes | > 60 min | 94.90% | 198 °C
2 | CCCCCCOC(CCC)CCC [4-hexoxyheptane] | 43 mJ/kg | – | 68 °C | – | – | – | – | 234 °C
3 | CCCCCC(CCCCC)OCC [6-ethoxyundecane] | 42 mJ/kg | – | 83 °C | – | – | – | – | 236 °C
